# Data published in article PMC10187093, “Synthesis, in silico modelling, and in vitro biological evaluation of substituted pyrazole derivatives as potential anti-skin cancer, anti-tyrosinase, and antioxidant agents” (Journal of Enzyme Inhibition and Medicinal Chemistry, 2023).
# Legend:
# A431 = test: Immunoblotting of apoptosis markers, A431; assay type: cell-based, human; conditions: western blot, 48 h, vs untreated
# Procedure: Immunoblotting was performed according to standard procedures of the Bio-Rad electrophoresis system (Bio-Rad, Hercules, CA) as described earlier. Briefly, protein extracts were obtained by lysing cells in RIPA buffer containing protease inhibitors, and were resolved by 4–12% polyacrylamide ready mini-PROTEAN TGX gel electrophoresis with sodium dodecyl sulphate (SDS) running buffer. Gels were electrotransferred to 0.45 μm nitrocellulose membranes (Bio-Rad, Hercules, CA) in Tris-glycine (TG) buffer using a Trans-Blot Turbo Transfer Pack according to manufacturer’s instructions. Membranes were incubated for 1 h in 5–7% non-fat powdered milk dissolved in TBST (Tris-buffered saline containing 0.05% Tween 20) or 5% BSA for phosphorylated proteins, to saturate nonspecific binding sites, followed by an overnight incubation (4 °C) with primary antibodies. Membranes were washed 5× with TBST and treated with suitable HRP-conjugated secondary antibodies (Amersham Life Science Inc., Arlington Height, IL) for another 2 h at room temperature, followed by additional wash steps and chemiluminescence-based detection with the Amersham ECL Prime detection reagent kit and the Bio-Rad Quantity One ChemiDoc™ detection and imaging analysis software systems as described earlier[108]^,[109].
# mushroom tyrosinase = molecular target: T1, mushroom tyrosinase (Agaricus bisporus, UniProt C7FF04); test: In vitro mushroom tyrosinase inhibition assay; assay type: biochemical
# T1 construct: purchased Sigma-Aldrich Chemical Company (St. Louis, MO) and MP Biomedicals (Irvine, CA)
# T1 sequence (C7FF04 1-392 limits assumed): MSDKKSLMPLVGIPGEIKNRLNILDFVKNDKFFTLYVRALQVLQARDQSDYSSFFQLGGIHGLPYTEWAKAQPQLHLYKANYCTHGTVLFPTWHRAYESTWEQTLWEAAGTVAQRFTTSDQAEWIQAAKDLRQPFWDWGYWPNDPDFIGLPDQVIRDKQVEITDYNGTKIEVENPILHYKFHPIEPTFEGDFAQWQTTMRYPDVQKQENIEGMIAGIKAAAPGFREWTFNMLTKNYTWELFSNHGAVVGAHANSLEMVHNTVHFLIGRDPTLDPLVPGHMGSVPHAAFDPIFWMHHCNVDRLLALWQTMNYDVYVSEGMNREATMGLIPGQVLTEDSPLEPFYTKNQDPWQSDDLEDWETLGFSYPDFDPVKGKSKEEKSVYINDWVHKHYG
# GFP-A431 = test: MTT antiproliferative/cytotoxicity assay, A431; assay type: cell-based, human; conditions: Homo sapiens, A-431, 48 h, non-melanoma, MTT, 48 h; read-out: IC50 GFP-A431
# SK-MEL-28 = test: Colony formation assay, SK-MEL-28; assay type: cell-based, human; conditions: 0, ½IC50, IC50, 1½IC50; 14 days; vs untreated control
# Procedure: Cells were then trypsinised, and 1000 viable cells from each treated group were seeded on […] in 10 mL of the medium, and incubated for an additional 14 days before fixation and crystal violet staining, imaging, and colonies assessment as previously described[109]^,[116]. The plates were scanned, and the area of clones was quantified with the free software Image J (Bethesda, MD) (https://imagej.nih.gov/ij/).
smiles,measurement,setting,value
O=C1CC(c2ccccc2)=NN1c1ccc(Br)cc1 [P25],"activated caspase-3, caspase-9 and cleaved PARP levels, A431",A431; concentration-dependent,substantially increased levels
same,"anti-apoptotic Bcl-2 protein levels, A431",A431,corresponding decreases
same,"pro-apoptotic Bax expression, A431",A431,dose-dependent amplified expression
same,inhibition at 500 µM,"mushroom tyrosinase; 500 µM, single-concentration screen, read-out: % Inhibition of tyrosinase",21.9%
same,IC50,"mushroom tyrosinase; > 500 = not biologically relevant, read-out: IC50 Value, mushroom tyrosinase inhibition (Table S1)",> 500 µM
same,IC50,GFP-A431,3.7 ± 0.5 µM
same,"colony formation, SK-MEL-28",SK-MEL-28,significant concentration-dependent reductions in the relative percentage of colonies formed
